Key:
[1] = microbe, parasite or virus in culture; settings: Mycobacterium tuberculosis, 96 h, read-out: pIC50 (converted)
[2] = microbe, parasite or virus in culture; settings: Mycobacterium tuberculosis, 72 h, read-out: pIC50 (converted)

| SMILES | IC50 [1] | IC50 [2] |
| --- | --- | --- |
| Nc1ncccc1C(=O)NCCC1=CCCCC1 | > 501 µM | 230 µM |
| Cc1cc(NCC2CCS(=O)(=O)C2)n2nc(C)cc2n1 (configuration not stated) | > 50.1 µM | > 50.1 µM |
| OCCOCCNCc1ccc(-c2ccc(F)cc2)o1 | 127 µM | 288 µM |
| CN(C)C(=O)CCOC(=O)c1cccc(Cl)c1 | > 501 µM | 227 µM |
| CCN(CC)CCn1cnc(-c2ccccc2)c1-c1ncc[nH]1 | 27.2 µM | > 50.1 µM |
| CCOc1cc(Cl)ccc1CN | 121 µM | 159 µM |
| CCCc1nc(N(C)Cc2ccco2)c2c(n1)c(C)nn2CC | 12 µM | 25.2 µM |
| O=C(c1cscn1)N1CCN(c2ccc(Cl)cn2)CC1 | 249 µM | 116 µM |
| COc1ccc(CCN)c(Cl)c1OC | > 501 µM | 265 µM |
| NCCCc1nc(-c2ccc(F)cc2)no1 | 186 µM | 163 µM |
| Cc1ccncc1NC1CS(=O)(=O)c2ccccc21 (configuration not stated) | 43.2 µM | 27.1 µM |
| Cc1cccc(-c2ccc(C(=O)N3CCSCC3)c(=O)[nH]2)c1 | > 50.1 µM | 36.1 µM |
| COc1cc(-c2cccc3c2OC(CN)C3)cc(OC)c1OC (configuration not stated) | 43.9 µM | 43.9 µM |
| O=C(NC1CCCNC1)c1coc2ccccc12 (configuration not stated) | > 501 µM | > 501 µM |
| Nc1ncnc2[nH]c(N3CCCCC3)nc12 | > 50.1 µM | > 50.1 µM |
| CN1CCN(C(=O)c2cc3c(F)cccc3s2)CC1 | > 501 µM | 165 µM |
| Cn1nnc(NCc2ccc(-c3ccc(Cl)cc3)o2)n1 | 8.3 µM | 42.2 µM |
| COc1ccc(CNc2nc(C3CC3)nc3c(C)nn(C)c23)cc1 | 9.46 µM | 27.3 µM |
| CN(CC(=O)Nc1ccsc1)C(=O)c1ccco1 | > 501 µM | > 501 µM |
| CC(NC(=O)CNc1ccccc1F)c1ccco1 (configuration not stated) | 4.24 µM | 51.7 µM |
| Cc1cc(=O)[nH]c(SC(C)C(=O)N2CCC(NS(C)(=O)=O)CC2)n1 (configuration not stated) | > 50.1 µM | > 50.1 µM |
| CNC(=O)CN(C)C(=O)CCc1ccc(Br)cc1F | 166 µM | 108 µM |
| CC(CN)CNC(=O)c1ccc(C(F)(F)F)cc1 (configuration not stated) | > 501 µM | > 501 µM |
| Cc1ccc2nc(CCN)oc2c1 | 23.3 µM | 78.4 µM |
| CC(N)Cc1ccccc1Sc1ccc(O)cc1 (configuration not stated) | > 50.1 µM | > 50.1 µM |
| CCN1CCN(C(=O)c2ccc(C)c(C)c2)CC1 | > 501 µM | > 501 µM |

| SMILES | IC50 [1] | IC50 [2] |
| --- | --- | --- |
| COc1ccccc1N1CCC(N)C1 (configuration not stated) | 64.3 µM | 30.5 µM |
| CCc1ccc(CN2CCN(C(=O)N(C)C)CC2)o1 | > 501 µM | 206 µM |
| CNC(=O)COC(=O)Cc1ccc(Br)cc1 | > 501 µM | > 501 µM |
| CCOc1cc(NCc2ncc(C)o2)ncn1 | > 501 µM | 153 µM |
| CCc1nnc(CN2CCOC3(CCCC3)C2)o1 | > 501 µM | > 501 µM |
| O=C(NCCCOC(F)F)NCc1ccc(Br)o1 | 125 µM | 135 µM |
| O=C(COCC1CC1)Nc1cc(S(=O)(=O)NC2CC2)ccc1F | > 50.1 µM | 45.8 µM |
| O=C(NC1CC1)c1nc2c(s1)CCCN2c1ccccc1 | 14.2 µM | > 50.1 µM |
| O=C(Nc1ccc(F)c(Cl)c1)N1CCC(O)C1 (configuration not stated) | 314 µM | 212 µM |
| CN(Cc1ccco1)C(=O)CCc1ccc(C#N)cc1 | 77.4 µM | 31.7 µM |
| O=C(CC1C=CCC1)N1CCN(Cc2ccco2)CC1 (configuration not stated) | 228 µM | 184 µM |
| COCCN1CCN(CCS(=O)(=O)C(F)(F)F)CC1 | 293 µM | 131 µM |
| N[C@@H](CO)C(=O)N1CCC(Cc2ccc(F)cc2)CC1 | > 501 µM | 195 µM |
| O=C1CCN(Cc2cc(Br)cc3cccnc23)CCN1 | > 501 µM | 493 µM |
| CC(C)(C)OC(=O)N1CC2(CCC(CN)O2)C1 (configuration not stated) | 263 µM | 231 µM |
| CC(C)c1nccn1C1CCCN(C(=O)c2ccc3[nH]nnc3c2)C1 (configuration not stated) | > 50.1 µM | > 50.1 µM |
| CNCC(=O)NCCc1c(OC)ccc2ccccc12 | > 501 µM | 411 µM |
| NCc1noc2c1CCCC2 | > 501 µM | > 501 µM |
| OCCNCCNCc1ccc(-c2ccccc2)o1 | 29.2 µM | 159 µM |
| O=C(CCSc1ccc(F)cc1)N1CCN(c2cnccn2)CC1 | > 50.1 µM | > 50.1 µM |
| CCCc1nc(C)cc(N2CCC3(CCC(=O)N(CCO)C3)CC2)n1 | > 50.1 µM | > 50.1 µM |
| COCCNCC(=O)Nc1cccc(CSC)c1 | > 501 µM | 374 µM |
| CC(C)(C)Cc1nnc(NCc2ccsc2)o1 | 12.5 µM | > 50.1 µM |
| COC(=O)N1CCN(c2ccccn2)CC1 | 168 µM | > 501 µM |
| CC(=O)c1ccc(C(=O)Nc2ccnc(N(C)C)n2)cc1 | > 50.1 µM | > 50.1 µM |
